Data as given in patent US20050137223A1, “Glucoimidazole and polyhydroxycyclohexenyl amine derivatives to treat gaucher disease” (Amicus Therapeutics, Inc., priority 2003, published 2005).
Residue numbers refer to the chain shown, from its start. Read-outs that look alike come from different tables or passages of the source.

Key:
GCase [1] = molecular target: T1, GCase (Homo sapiens, UniProt P04062); test: Inhibitory activity against GCase (4-methylumbelliferyl β-glucoside substrate); type: biochemical; conditions: for IC50: human GCase, 3 mM 4-MU β-glucoside, pH 5.2, 37° C., 30 min; for increase of inhibitory potency relative to 2-PE-GIZ: phenylethyl group replaced with octyl or dimethylbutyl at the same position
T1 sequence (P04062 40-536): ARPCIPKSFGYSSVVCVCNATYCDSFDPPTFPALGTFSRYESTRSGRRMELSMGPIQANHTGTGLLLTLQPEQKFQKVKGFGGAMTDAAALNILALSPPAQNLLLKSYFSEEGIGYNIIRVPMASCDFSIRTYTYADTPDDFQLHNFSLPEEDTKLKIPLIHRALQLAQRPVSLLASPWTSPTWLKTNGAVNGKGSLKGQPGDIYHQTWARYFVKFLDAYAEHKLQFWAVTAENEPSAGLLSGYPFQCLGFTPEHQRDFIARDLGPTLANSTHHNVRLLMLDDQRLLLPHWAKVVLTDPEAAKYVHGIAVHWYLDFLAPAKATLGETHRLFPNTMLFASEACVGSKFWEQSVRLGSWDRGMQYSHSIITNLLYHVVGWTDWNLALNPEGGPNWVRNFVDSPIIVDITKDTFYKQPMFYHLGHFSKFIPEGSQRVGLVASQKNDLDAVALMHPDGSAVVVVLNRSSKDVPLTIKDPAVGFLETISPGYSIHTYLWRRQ
Protocol: Methods. […] The compounds were added to each reaction mixture individually at the final concentration indicated. After incubation with the diluted human GCase at 37° C. for 30 min, the reaction was stopped by addition of 0.2 M glycine buffer, pH 10.8, the released 4-methylumbelliferone was determined by a fluoremeter at excitation wavelength of 355 nm and emission wavelength at 460 nm, respectively. The relative enzyme activity was calculated as a percentage to those of reactions without inhibitors. IC50 was calculated using Prism sigmoid plot.

[2] = molecular target: T2, GCase in fibroblasts from Gaucher patients with N370S/N370S mutation (Homo sapiens, UniProt P04062, N409S); test: Chaperone activity for GCase in Gaucher patient fibroblasts (residual enzyme activity); type: cell-based; conditions: cultured with compound for 4 days
T2 construct: endogenous in cells; host or cells: fibroblasts from Gaucher patients homozygous for N370S
T2 sequence (P04062 40-536 N409S): T1 sequence (P04062 40-536) with N370S
Protocol: Methods. Fibroblasts established from Gaucher patients with N370S/N370S mutation were cultured in DMEM medium supplemented with 10% fetal bovine serum and antibiotics at 37° C. under 5% CO2. The GIZ was added into the culture medium at the final concentrations for 4 days prior to the assay. After washing the cells with phosphate-buffered saline, the cells were harvested and homogenized in the presence of 0.25% (w/v) sodium taurocholate and 0.1% (v/v) Triton X-100 in McIlvaine buffer (pH 5.2, Reaction Buffer), and 10 μl of the lysate was used for the determination of residual enzyme activity. The activity of the GCase was determined with 3 mM 4-MU-β-Glc in the Reaction Buffer at 37° C. for 1 hr as conduritol B epoxide (CBE)-sensitive activity in parallel assays without or with pre-incubation with CBE at 1.25 mM for 30 min at room temperature. Protein concentrations in the cell lysates were determined using micro BCA protein assay kit from Pierce.

[3] = shortly after the start of the treatment; cited from earlier work
GCase [4] = molecular target: T1, GCase; conditions: literature values (Ogawa et al.); read-out: IC50 against GCase; cited from earlier work

Row | SMILES | IC50 (GCase [1]) [nM] | increase of inhibitory potency relative to 2-PE-GIZ (GCase [1]) | further results
1 | OC[C@@H]1[C@@H](O)[C@H](O)[C@@H](O)c2nccn21 [GIZ, (5R,6R,7S,8S)-5-hydroxymethyl-5,6,7,8-tetrahydroimidazo[1,2-a]pyridine-6,7,8-triol] | 87 |  | increase of residual enzyme activity in patient cells [2]: approximately 2 fold; optimal concentration for the maximum enhancement [2]: ~300 µM
2 | CCCCN1C[C@H](O)[C@@H](O)[C@H](O)[C@H]1CO [N-butyl 1-deoxynojirimycin (NB-DNJ), N-butyl 1-deoxynojirimycin] |  |  | patients with diarrhea (most frequent adverse effect) [3]: 79%
3 | CCCCCCCCN[C@@H]1C=C(CO)[C@@H](O)[C@H](O)[C@H]1O [N-octyl valienamine] |  |  | IC50 (GCase [4]): ~300 nM

Second part, led by results:

Row | IC50 (GCase [1]) [nM] | increase of inhibitory potency relative to 2-PE-GIZ (GCase [1]) | SMILES | further results
4 | 0.03 | ~37 fold | CC(C)(C)CCc1cn2c(n1)[C@H](O)[C@@H](O)[C@H](O)[C@H]2CO [2-Dimethylbutyl GIZ, (5R,6R,7S,8S)-5-Hydroxymethyl-2-(3,3-dimethylbutyl)-5,6,7,8-tetrahydroimidazo[1,2-a]pyridine-6,7,8-triol] | 
5 | 0.07 | approximately 15 fold | CCCCCCCCc1cn2c(n1)[C@H](O)[C@@H](O)[C@H](O)[C@H]2CO [2-Octyl GIZ, (5R,6R,7S,8S)-5-Hydroxymethyl-2-n-octyl-5,6,7,8-tetrahydroimidazo[1,2-a]pyridine-6,7,8-triol] | 
6 | 1.1 |  | OC[C@@H]1[C@@H](O)[C@H](O)[C@@H](O)c2nc(CCc3ccccc3)cn21 [2-Phenylethyl GIZ, (5R,6R,7S,8S)-5-hydroxymethyl-2-phenethyl-5,6,7,8-tetrahydroimidazo[1,2-a]pyridine-6,7,8-triol] | 
